Measured values as given in patent US20130158098A1, “Alkenyl Substituted Cycloaliphatic Compounds as Chemical Inducers of Proximity” (priority 2010, published 2013).

Test: ABA stability in cell culture (luciferase biofunctional readout)
Format: in vitro ADME, Chinese hamster
Experimental: FIG. 3C provides the results of a stability test of ABA in cell culture conditions. CHO cells were pre-transfected with the activation and reporter DNA constructs for 24 hours. 100 μM ABA was then added to the culture and cells were assayed for luciferase activity after 10 hours. During the 10-hour incubation, the cell culture media were replaced with media containing freshly added ABA every 1, 2.5, 5 hour or no replacement. FIG. 4A illustrates the results of an experiment in which human serum pre-incubated ABA was used to induce luciferase transcription. ABA was incubated with pure non-heat inactivated human serum at 37° C. for indicated time period. ABA containing serum was then added to the CHO cell culture to a final 100 μM ABA concentration for 25 hours and cells were assayed for luciferase activity. The cells were pre-transfected with the activation and reporter DNA constructs for 24 hours. FIG. 4B illustrates the results of an experiment in which fetal bovine serum pre-incubated ABA was used to induce luciferase transcription. ABA was incubated with pure heat inactivated fetal bovine serum at 37° C. for indicated time period. ABA containing serum was then added to the CHO cell culture to a final 100 μM ABA concentration for 10 hours and cells were assayed for luciferase activity. The cells were pre-transfected with the activation and reporter DNA constructs for 24 hours.
In plants, ABA had been reported to be unstable due to active enzymatic degradation (Cutler, A. J. and Krochko, J. E. (1999) Formation and breakdown of ABA. Trends Plant Sci. 4, 472-478). […] The activity of residual ABA in the serum was measured by its ability to induce the transcriptional activation of the luciferase reporter in cells expressing the ABA-activator cassette. […] Using this assay, the bioavailability in mice was evaluated. […]

## CC1=CC(=O)CC(C)(C)C1(O)/C=C/C(C)=C/C(=O)O (stereo not drawn) [ABA, abscisic acid]
After 24 hours of incubation with CHO cells
  ABA activity retained: about 60%
After 48 hours of incubation with CHO cells
  ABA activity retained: around 23%
Cell culture media, up to 48 hours
  reduction in ability to induce transcription of luciferase: no significant reduction
